Source: patent publication US12391679B2, “Benzamide-substituted bicyclic imidazo- and pyrazolo-fused -pyridine, -pyrimide, and -pyridazine compounds for treatment of inflammatory diseases” (ONCO3R Therapeutics BV, priority 2019, dated 2025)

Key:
Assay type in all cases: biochemical
[1] = target: T1, SIK3 (Homo sapiens, UniProt Q9Y2K2); test: ADP-Glo kinase assay, SIK3
T1 construct: purchased SignalChem S12-11G-100
Description: (§1) The ADP-Glo™ kinase assay is a luminescent technology assay which measures the ADP formed from a kinase reaction. […] In a second step the kinase reactions are terminated and all the remaining ATP is depleted. In a final step the ADP is converted into ATP and this newly synthesized ATP is measured by using a luciferase/luciferin reaction. The generated light is measured using an Envision plate reader, wherein the luminescent signal obtained positively correlates with the kinase activity.
(§2) 1% DMSO and 10 μM staurosporine final concentrations are used as negative and positive controls.
(§3) 2 μL enzyme-substrate mixture is added to the assay plates.
(§4) The reaction is started by adding 2 μL diluted ATP on the assay plates. Plates are centrifuged for a few seconds at 1000 rpm and gently shaken for […] followed by an incubation at RT for 120 min.
(§5) The reactions are stopped and the unconsumed ATP is depleted by adding 5 μL ADP-Glo Reagent (Promega, Cat #V9120) to the reaction. The plates are centrifuged for a few seconds at 1000 rpm and incubated at RT for 40 min (ATP depletion).
(§6) The ADP is converted to ATP and luciferase and luciferin is introduced to detect ATP by adding 10 μL Kinase Detection Reagent (Promega, Cat #V913B+V914r) to the reaction. The plates are centrifuged for a few seconds at 1000 rpm and incubated at RT for 30 min (ADP detection).
(§7) Luminescence is measured on an Envision plate reader (PerkinElmer Inc.).

[2] = target: T2, SIK1 (Homo sapiens, UniProt P57059); test: ADP-Glo kinase assay, SIK1
T2 construct: purchased Carna Biosciences 02-131
T2 sequence (P57059 whole entry): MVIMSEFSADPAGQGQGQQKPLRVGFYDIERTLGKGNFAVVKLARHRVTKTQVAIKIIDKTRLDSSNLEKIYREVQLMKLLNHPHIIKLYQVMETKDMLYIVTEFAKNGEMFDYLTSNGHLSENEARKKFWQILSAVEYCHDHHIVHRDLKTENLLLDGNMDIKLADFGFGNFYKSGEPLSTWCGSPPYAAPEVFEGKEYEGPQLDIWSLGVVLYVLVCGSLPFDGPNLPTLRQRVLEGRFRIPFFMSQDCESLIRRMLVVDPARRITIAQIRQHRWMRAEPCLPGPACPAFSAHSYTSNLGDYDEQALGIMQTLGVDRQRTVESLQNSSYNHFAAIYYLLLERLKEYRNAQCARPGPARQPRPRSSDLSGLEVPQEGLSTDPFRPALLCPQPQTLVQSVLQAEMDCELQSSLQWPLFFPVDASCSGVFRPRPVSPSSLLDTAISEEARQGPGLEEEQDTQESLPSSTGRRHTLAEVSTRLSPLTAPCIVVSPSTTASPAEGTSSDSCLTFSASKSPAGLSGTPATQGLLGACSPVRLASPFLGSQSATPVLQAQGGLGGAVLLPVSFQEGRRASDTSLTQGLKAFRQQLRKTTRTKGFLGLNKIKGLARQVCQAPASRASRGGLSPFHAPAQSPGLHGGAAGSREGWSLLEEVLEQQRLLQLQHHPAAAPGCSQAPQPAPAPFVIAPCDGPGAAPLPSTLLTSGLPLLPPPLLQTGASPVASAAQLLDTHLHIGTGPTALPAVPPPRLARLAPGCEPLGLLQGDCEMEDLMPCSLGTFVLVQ
Description: as §1, §2, §3, §4, §5, §6, §7

[3] = target: T3, SIK2 (Homo sapiens, UniProt Q9H0K1); test: ADP-Glo kinase assay, SIK2
T3 construct: purchased ThermoFisher Scientific PV4792
T3 sequence (Q9H0K1 whole entry): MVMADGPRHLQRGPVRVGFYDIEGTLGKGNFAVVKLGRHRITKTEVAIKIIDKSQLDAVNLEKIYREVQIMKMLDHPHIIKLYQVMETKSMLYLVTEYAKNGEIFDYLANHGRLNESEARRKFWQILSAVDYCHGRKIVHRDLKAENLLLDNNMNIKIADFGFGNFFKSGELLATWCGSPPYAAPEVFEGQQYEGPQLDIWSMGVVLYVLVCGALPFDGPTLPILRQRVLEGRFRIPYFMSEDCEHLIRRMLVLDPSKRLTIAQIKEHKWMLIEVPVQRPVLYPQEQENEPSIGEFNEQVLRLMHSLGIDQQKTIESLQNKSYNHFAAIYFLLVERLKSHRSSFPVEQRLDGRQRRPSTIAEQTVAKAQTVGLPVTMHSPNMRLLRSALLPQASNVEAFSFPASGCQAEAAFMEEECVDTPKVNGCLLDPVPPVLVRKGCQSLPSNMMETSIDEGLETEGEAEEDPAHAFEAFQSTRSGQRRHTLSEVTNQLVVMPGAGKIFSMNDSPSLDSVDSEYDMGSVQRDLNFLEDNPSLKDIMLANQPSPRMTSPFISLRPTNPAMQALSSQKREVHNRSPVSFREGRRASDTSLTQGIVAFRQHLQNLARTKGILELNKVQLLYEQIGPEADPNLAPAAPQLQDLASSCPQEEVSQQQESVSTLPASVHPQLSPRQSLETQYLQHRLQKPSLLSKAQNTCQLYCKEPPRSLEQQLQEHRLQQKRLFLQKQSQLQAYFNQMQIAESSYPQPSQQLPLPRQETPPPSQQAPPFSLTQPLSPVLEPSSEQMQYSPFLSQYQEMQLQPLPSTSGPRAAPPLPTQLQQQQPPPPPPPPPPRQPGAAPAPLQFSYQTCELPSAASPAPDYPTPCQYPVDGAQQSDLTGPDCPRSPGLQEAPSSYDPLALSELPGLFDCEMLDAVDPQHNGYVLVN
Description: as §1, §2, §3, §4, §5, §6, §7

T1 sequence (Q9Y2K2 59-365 limits assumed): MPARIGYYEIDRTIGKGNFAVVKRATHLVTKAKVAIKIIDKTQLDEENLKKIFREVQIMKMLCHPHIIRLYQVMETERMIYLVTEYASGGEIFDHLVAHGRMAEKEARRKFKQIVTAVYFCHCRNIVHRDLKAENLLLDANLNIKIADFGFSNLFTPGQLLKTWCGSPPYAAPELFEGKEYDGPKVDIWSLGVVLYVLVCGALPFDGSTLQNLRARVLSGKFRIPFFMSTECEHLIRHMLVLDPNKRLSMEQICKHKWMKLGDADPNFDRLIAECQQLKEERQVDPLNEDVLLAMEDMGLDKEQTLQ

In the case of `COc1cc(-c2cnc3cc(C(C)(C)C#N)ccn23)cnc1C(=O)NCC(F)(F)F` [Cpd 127, 5-[7-(1-cyano-1-methyl-ethyl)imidazo[1,2-a]pyridin-3-yl]-3-methoxy-N-(2,2,2-trifluoroethyl)pyridine-2-carboxamide], the IC50 [1] is reported as 100 to 500 nM, the IC50 [2] is reported as greater than 500 nM and the IC50 [3] is reported as greater than 500 nM.
Work on `COc1cc(-c2cnc3cc(C(C)(C)C#N)ccn23)cc(OC(F)F)c1C(=O)NC1CS(=O)(=O)C1` [Cpd 73, 4-[7-(1-cyano-1-methyl-ethyl)imidazo[1,2-a]pyridin-3-yl]-2-(difluoromethoxy)-N-(1,1-dioxothietan-3-yl)-6-methoxy-benzamide] yielded an IC50 [1] of 10 to 100 nM, an IC50 [2] greater than 500 nM and an IC50 [3] greater than 500 nM.
`COc1cc(-c2cnc3cc(C(C)(C)C#N)ccn23)cc(OC(F)F)c1C(=O)NCCCO` [Cpd 44, 4-[7-(1-cyano-1-methyl-ethyl)imidazo[1,2-a]pyridin-3-yl]-2-(difluoromethoxy)-N-(3-hydroxypropyl)-6-methoxy-benzamide] showed an IC50 [1] of 10 to 100 nM, an IC50 [2] greater than 500 nM and an IC50 [3] greater than 500 nM.
With `COc1cc(-c2cnc3cc(C(C)(C)C(C)=O)ccn23)cc(OC)c1C(=O)NCC(F)(F)F` [Cpd 56, 4-[7-(1,1-dimethyl-2-oxo-propyl)imidazo[1,2-a]pyridin-3-yl]-2,6-dimethoxy-N-(2,2,2-trifluoroethyl)benzamide] the IC50 [1] was 10 to 100 nM, the IC50 [2] was greater than 500 nM and the IC50 [3] was greater than 500 nM.
With `COc1cc(-c2cnc3cc(C4(C)CN(C)CCO4)ccn23)cc(OC(F)F)c1C(=O)NC1CC1` (stereo not drawn) [Cpd 210, N-cyclopropyl-2-(difluoromethoxy)-4-[7-(2,4-dimethylmorpholin-2-yl)imidazo[1,2-a]pyridin-3-yl]-6-methoxy-benzamide] the IC50 [1] was 10 to 100 nM, the IC50 [2] was greater than 500 nM and the IC50 [3] was greater than 500 nM.
Compound `COc1cc(-c2cnc3cc(C(C)(C)C#N)ccn23)cc(OC(F)F)c1C(=O)N1CC(CO)C1` [Cpd 97, 2-[3-[3-(difluoromethoxy)-4-[3-(hydroxymethyl)azetidine-1-carbonyl]-5-methoxy-phenyl]imidazo[1,2-a]pyridin-7-yl]-2-methyl-propanenitrile] has an IC50 [1] of 10 to 100 nM, an IC50 [2] greater than 500 nM and an IC50 [3] greater than 500 nM.
`COc1cc(-c2cnc3cc(C(C)(C)C#N)ccn23)cc(OC(F)F)c1C(=O)N1CC(O)(C2CC2)C1` [Cpd 74, 2-[3-[4-(3-cyclopropyl-3-hydroxy-azetidine-1-carbonyl)-3-(difluoromethoxy)-5-methoxy-phenyl]imidazo[1,2-a]pyridin-7-yl]-2-methyl-propanenitrile] was tested, and the IC50 [1] was 10 to 100 nM, the IC50 [2] was greater than 500 nM and the IC50 [3] was greater than 500 nM.
`COc1cc(-c2cnc3cc(C4CCNCC4)ccn23)cc(OC(F)F)c1C(=O)NC1CC1` [Cpd 66, N-cyclopropyl-2-(difluoromethoxy)-6-methoxy-4-[7-(4-piperidyl)imidazo[1,2-a]pyridin-3-yl]benzamide] gave an IC50 [1] of 10 to 100 nM, an IC50 [2] greater than 500 nM and an IC50 [3] of 10 to 100 nM.
`COc1cc(-c2cnn3cc(C(C)(C)OCCO)ccc23)cc(OC(F)F)c1C(=O)NC1CC1` [Cpd 239, N-cyclopropyl-2-(difluoromethoxy)-4-[6-[1-(2-hydroxyethoxy)-1-methyl-ethyl]pyrazolo[1,5-a]pyridin-3-yl]-6-methoxy-benzamide] gave an IC50 [1] of 10 to 100 nM, an IC50 [2] greater than 500 nM and an IC50 [3] greater than 500 nM.
Compound `COc1cc(-c2cnc3cc(C(C)(C)C#N)ccn23)cc(OC(F)F)c1C(=O)N1CCC(F)(F)C1` [Cpd 47, 2-[3-[3-(difluoromethoxy)-4-(3,3-difluoropyrrolidine-1-carbonyl)-5-methoxy-phenyl]imidazo[1,2-a]pyridin-7-yl]-2-methyl-propanenitrile] has an IC50 [1] of 10 to 100 nM, an IC50 [2] greater than 500 nM and an IC50 [3] greater than 500 nM.
`COc1cc(-c2cnc3cc(C(C)(C)C#N)ccn23)cc(OC(F)F)c1C(=O)N1CCOCC1` [Cpd 48, 2-[3-[3-(difluoromethoxy)-5-methoxy-4-(morpholine-4-carbonyl)phenyl]imidazo[1,2-a]pyridin-7-yl]-2-methyl-propanenitrile] was tested, and the IC50 [1] was greater than 500 nM, the IC50 [2] was greater than 500 nM and the IC50 [3] was greater than 500 nM.
For `COc1cc(-c2cnn3cc(C4CCOCC4)ccc23)cc(OC(F)F)c1C(=O)NC1CC1` [Cpd 112, N-cyclopropyl-2-(difluoromethoxy)-6-methoxy-4-(6-tetrahydropyran-4-ylpyrazolo[1,5-a]pyridin-3-yl)benzamide], the IC50 [1] was 0.01 to 10 nM, the IC50 [2] was greater than 500 nM and the IC50 [3] was 10 to 100 nM.
With `COc1cc(-c2cnc3cc(C(C)(C)C#N)ccn23)cc(OC(F)F)c1C(=O)N1CC(C(F)(F)F)C1` [Cpd 76, 2-[3-[3-(difluoromethoxy)-5-methoxy-4-[3-(trifluoromethyl)azetidine-1-carbonyl]phenyl]imidazo[1,2-a]pyridin-7-yl]-2-methyl-propanenitrile] the IC50 [1] was 0.01 to 10 nM, the IC50 [2] was greater than 500 nM and the IC50 [3] was 100 to 500 nM.
`COc1cc(-c2cnn3cc(C(C)(C)c4noc(C)n4)ccc23)cc(OC(F)F)c1C(=O)NC1CC1` [Cpd 247, N-cyclopropyl-2-(difluoromethoxy)-6-methoxy-4-[6-[1-methyl-1-(5-methyl-1,2,4-oxadiazol-3-yl)ethyl]pyrazolo[1,5-a]pyridin-3-yl]benzamide] was tested, and the IC50 [1] was 10 to 100 nM, the IC50 [2] was greater than 500 nM and the IC50 [3] was greater than 500 nM.
Work on `C#CC1(O)CN(C(=O)c2c(OC)cc(-c3cnc4cc(C(C)(C)C#N)ccn34)cc2OC(F)F)C1` [Cpd 89, 2-[3-[3-(difluoromethoxy)-4-(3-ethynyl-3-hydroxy-azetidine-1-carbonyl)-5-methoxy-phenyl]imidazo[1,2-a]pyridin-7-yl]-2-methyl-propanenitrile] yielded an IC50 [1] of 10 to 100 nM, an IC50 [2] greater than 500 nM and an IC50 [3] greater than 500 nM.
Work on `COc1cc(-c2cnc3cc(C(C)(C)C#N)ccn23)cc(OC(F)F)c1C(=O)NCC(C)C` [Cpd 72, 4-[7-(1-cyano-1-methyl-ethyl)imidazo[1,2-a]pyridin-3-yl]-2-(difluoromethoxy)-N-isobutyl-6-methoxy-benzamide] yielded an IC50 [1] of 10 to 100 nM, an IC50 [2] greater than 500 nM and an IC50 [3] greater than 500 nM.
Compound `COCCN1CCCC1c1ccn2c(-c3cc(OC)c(C(=O)NC4CC4)c(OC(F)F)c3)cnc2c1` (stereo not drawn) [Cpd 196, N-cyclopropyl-2-(difluoromethoxy)-6-methoxy-4-[7-[1-(2-methoxyethyl)pyrrolidin-2-yl]imidazo[1,2-a]pyridin-3-yl]benzamide] has an IC50 [1] of 10 to 100 nM, an IC50 [2] of 100 to 500 nM and an IC50 [3] of 10 to 100 nM.
For `COc1cc(-c2cnc3cc(C(C)(C)C#N)ccn23)cc(OC(F)F)c1C(=O)N1CC(O)C1` [Cpd 50, 2-[3-[3-(difluoromethoxy)-4-(3-hydroxyazetidine-1-carbonyl)-5-methoxy-phenyl]imidazo[1,2-a]pyridin-7-yl]-2-methyl-propanenitrile], the IC50 [1] was 100 to 500 nM, the IC50 [2] was greater than 500 nM and the IC50 [3] was greater than 500 nM.
`COc1cc(-c2cnn3cc(C4(NCC#N)CCC4)ccc23)cc(OC(F)F)c1C(=O)N[C@@H]1C[C@@H]1F` [Cpd 270, 4-[6-[1-(cyanomethylamino)cyclobutyl]pyrazolo[1,5-a]pyridin-3-yl]-2-(difluoromethoxy)-N-[(1R,2S)-2-fluorocyclopropyl]-6-methoxy-benzamide] gave an IC50 [1] of 10 to 100 nM, an IC50 [2] greater than 500 nM and an IC50 [3] greater than 500 nM.
In the case of `COc1cc(-c2cnc3cc(C(C)(C)C#N)ccn23)cc(OC(F)F)c1C(=O)N1CCN(C)CC1` [Cpd 49, 2-[3-[3-(difluoromethoxy)-5-methoxy-4-(4-methylpiperazine-1-carbonyl)phenyl]imidazo[1,2-a]pyridin-7-yl]-2-methyl-propanenitrile], the IC50 [1] is reported as greater than 500 nM, the IC50 [2] is reported as greater than 500 nM and the IC50 [3] is reported as greater than 500 nM.
Work on `COc1cc(-c2cnc3cc(C(C)(C)C#N)ccn23)cc(OC(F)F)c1C(=O)NC(C)C1CC1` (stereo not drawn) [Cpd 101, 4-[7-(1-cyano-1-methyl-ethyl)imidazo[1,2-a]pyridin-3-yl]-N-(1-cyclopropylethyl)-2-(difluoromethoxy)-6-methoxy-benzamide] yielded an IC50 [1] of 100 to 500 nM, an IC50 [2] greater than 500 nM and an IC50 [3] greater than 500 nM.
`COc1cc(-c2cnc3cc(C4CN(C(=O)OC(C)(C)C)C4)c(F)cn23)cc(OC(F)F)c1C(=O)NC1CC1` [Cpd 158, tert-butyl 3-[3-[4-(cyclopropylcarbamoyl)-3-(difluoromethoxy)-5-methoxy-phenyl]-6-fluoro-imidazo[1,2-a]pyridin-7-yl]azetidine-1-carboxylate] was tested, and the IC50 [1] was 10 to 100 nM, the IC50 [2] was 100 to 500 nM and the IC50 [3] was 100 to 500 nM.
For `COc1cc(-c2cnc3cc(C4(C)CN(C)CCO4)ccn23)cc(OC(F)F)c1C(=O)NCC(F)(F)F` (stereo not drawn) [Cpd 214, 2-(difluoromethoxy)-4-[7-(2,4-dimethylmorpholin-2-yl)imidazo[1,2-a]pyridin-3-yl]-6-methoxy-N-(2,2,2-trifluoroethyl)benzamide], the IC50 [1] was 100 to 500 nM, the IC50 [2] was greater than 500 nM and the IC50 [3] was greater than 500 nM.
Work on `COc1cc(-c2cnc3cc(C4CN(C(=O)OC(C)(C)C)C4)ccn23)cc(OC)c1C(=O)NCC(F)(F)F` [Cpd 58, tert-butyl 3-[3-[3,5-dimethoxy-4-(2,2,2-trifluoroethylcarbamoyl)phenyl]imidazo[1,2-a]pyridin-7-yl]azetidine-1-carboxylate] yielded an IC50 [1] of 10 to 100 nM, an IC50 [2] of 100 to 500 nM and an IC50 [3] of 100 to 500 nM.
